{"source": "ChEMBL document CHEMBL5365464", "about": "“Structure-Based Optimization of the Third Generation Type II Macrocycle TRK Inhibitors with Improved Activity against Solvent-Front, xDFG, and Gatekeeper Mutations” (J Med Chem, 2023)", "key": {"[1]": {"experiment": "Cmax in ICR mouse at 2.0 mg/kg, iv measured upto 24 hrs by LC-MS/MS analysis", "type": "ADME, organism-based", "design": "dose 2 mg/kg, time < 24 hrs, route iv", "conditions": "in vivo"}, "[2]": {"target": "Tyrosine-protein kinase Mer (Homo sapiens, UniProt Q12866)", "sequence (Q12866 whole entry)": "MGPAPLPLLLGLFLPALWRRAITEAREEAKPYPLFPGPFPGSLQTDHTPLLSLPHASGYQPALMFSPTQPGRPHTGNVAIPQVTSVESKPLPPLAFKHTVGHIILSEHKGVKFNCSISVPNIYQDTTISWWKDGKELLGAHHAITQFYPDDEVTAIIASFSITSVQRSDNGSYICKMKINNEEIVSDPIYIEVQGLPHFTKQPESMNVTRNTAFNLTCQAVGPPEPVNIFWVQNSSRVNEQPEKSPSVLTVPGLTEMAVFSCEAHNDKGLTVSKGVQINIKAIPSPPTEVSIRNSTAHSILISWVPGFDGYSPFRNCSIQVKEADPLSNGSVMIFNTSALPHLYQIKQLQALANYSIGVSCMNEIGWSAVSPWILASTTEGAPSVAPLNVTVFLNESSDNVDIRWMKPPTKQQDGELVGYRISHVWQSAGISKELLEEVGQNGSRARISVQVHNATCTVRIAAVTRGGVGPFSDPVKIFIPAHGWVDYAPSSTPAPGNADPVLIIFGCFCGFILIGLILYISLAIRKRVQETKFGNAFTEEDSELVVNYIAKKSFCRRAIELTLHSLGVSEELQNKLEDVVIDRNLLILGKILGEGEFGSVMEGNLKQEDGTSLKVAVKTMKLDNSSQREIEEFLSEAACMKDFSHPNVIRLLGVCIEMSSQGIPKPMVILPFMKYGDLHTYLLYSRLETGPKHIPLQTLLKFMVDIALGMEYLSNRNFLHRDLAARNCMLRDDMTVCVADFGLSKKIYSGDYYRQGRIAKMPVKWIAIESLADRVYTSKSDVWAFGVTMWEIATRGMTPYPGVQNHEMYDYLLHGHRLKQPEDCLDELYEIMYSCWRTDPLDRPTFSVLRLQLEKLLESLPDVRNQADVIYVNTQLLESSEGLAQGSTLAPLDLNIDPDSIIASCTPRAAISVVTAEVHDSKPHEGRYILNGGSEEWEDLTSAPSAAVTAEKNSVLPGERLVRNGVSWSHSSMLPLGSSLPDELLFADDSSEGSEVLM", "experiment": "Inhibition of Mer (unknown origin)"}, "[3]": {"experiment": "Half life in ICR mouse at 10 mg/kg, po measured upto 24 hrs by LC-MS/MS analysis", "type": "ADME, organism-based", "conditions": "in vivo"}, "[4]": {"target": "Cyclin-dependent kinase 14 (Homo sapiens, UniProt O94921)", "experiment": "Inhibition of CDK14 (unknown origin)"}, "[5]": {"target": "Vascular endothelial growth factor receptor 2 (Homo sapiens, UniProt P35968)", "experiment": "Inhibition of KDR (unknown origin)"}, "[6]": {"target": "Ephrin type-A receptor 7 (Homo sapiens, UniProt Q15375)", "experiment": "Inhibition of EphA7 (unknown origin)"}, "[7]": {"target": "Ribosomal protein S6 kinase", "experiment": "Inhibition of P70S6K (unknown origin)", "type": "protein assay, Homo sapiens"}, "[8]": {"experiment": "AUC (0 to infinity) in ICR mouse at 2.0 mg/kg, iv measured upto 24 hrs by LC-MS/MS analysis", "type": "ADME, organism-based", "design": "dose 2 mg/kg, time < 24 hrs, route iv", "conditions": "in vivo"}, "[9]": {"target": "Proto-oncogene tyrosine-protein kinase receptor Ret (Homo sapiens, UniProt P07949)", "experiment": "Inhibition of RET (unknown origin)"}, "[10]": {"target": "Angiopoietin-1 receptor (Homo sapiens, UniProt Q02763)", "experiment": "Inhibition of Tie2 (unknown origin)"}, "[11]": {"experiment": "Half life in ICR mouse at 2.0 mg/kg, iv measured upto 24 hrs by LC-MS/MS analysis", "type": "ADME, organism-based", "conditions": "in vivo"}, "[12]": {"target": "Ephrin type-A receptor 2 (Homo sapiens, UniProt P29317)", "experiment": "Inhibition of EphA2 (unknown origin)"}, "[13]": {"experiment": "Tmax in ICR mouse at 2.0 mg/kg, iv measured upto 24 hrs by LC-MS/MS analysis", "type": "ADME, organism-based", "conditions": "in vivo"}, "[14]": {"experiment": "Toxicity in CB17-SCID mouse assessed as drug tolerance at 50 mg/kg/day administered via oral gavage measured every 2 days for 12 days", "type": "organism-based", "conditions": "in vivo, 288 h, time 12 day"}, "[15]": {"target": "Muscle, skeletal receptor tyrosine-protein kinase (Homo sapiens, UniProt O15146)", "sequence (O15146 whole entry)": "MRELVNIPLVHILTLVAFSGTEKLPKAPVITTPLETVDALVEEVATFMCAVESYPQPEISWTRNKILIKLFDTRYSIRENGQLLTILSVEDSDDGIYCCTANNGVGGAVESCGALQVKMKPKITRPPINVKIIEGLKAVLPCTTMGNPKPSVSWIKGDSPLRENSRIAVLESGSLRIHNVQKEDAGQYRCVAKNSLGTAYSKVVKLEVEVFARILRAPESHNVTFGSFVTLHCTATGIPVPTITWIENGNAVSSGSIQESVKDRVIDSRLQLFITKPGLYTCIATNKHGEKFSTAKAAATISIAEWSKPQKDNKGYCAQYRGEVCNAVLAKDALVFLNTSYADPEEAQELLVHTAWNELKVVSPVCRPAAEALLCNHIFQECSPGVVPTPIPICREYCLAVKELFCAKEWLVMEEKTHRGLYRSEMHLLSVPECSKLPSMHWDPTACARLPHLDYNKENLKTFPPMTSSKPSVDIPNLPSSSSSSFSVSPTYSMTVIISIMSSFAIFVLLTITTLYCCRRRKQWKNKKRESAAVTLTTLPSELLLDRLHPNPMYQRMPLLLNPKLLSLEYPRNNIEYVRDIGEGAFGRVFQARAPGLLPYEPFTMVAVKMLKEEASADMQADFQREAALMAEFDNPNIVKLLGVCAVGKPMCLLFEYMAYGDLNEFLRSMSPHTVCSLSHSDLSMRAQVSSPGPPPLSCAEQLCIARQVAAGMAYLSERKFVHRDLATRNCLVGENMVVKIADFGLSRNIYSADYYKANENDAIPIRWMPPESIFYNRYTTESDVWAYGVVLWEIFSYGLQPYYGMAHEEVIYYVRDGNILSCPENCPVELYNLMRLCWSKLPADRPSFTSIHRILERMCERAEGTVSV", "experiment": "Inhibition of Musk (unknown origin)"}, "[16]": {"target": "Epithelial discoidin domain-containing receptor 1 (Homo sapiens, UniProt Q08345)", "experiment": "Inhibition of DDR1 (unknown origin)"}, "[17]": {"experiment": "Cmax in ICR mouse at 10 mg/kg, po measured upto 24 hrs by LC-MS/MS analysis", "type": "ADME, organism-based", "design": "dose 10 mg/kg, time < 24 hrs, route po", "conditions": "in vivo"}, "[18]": {"target": "Tyrosine-protein kinase HCK (Homo sapiens, UniProt P08631)", "sequence (P08631 whole entry)": "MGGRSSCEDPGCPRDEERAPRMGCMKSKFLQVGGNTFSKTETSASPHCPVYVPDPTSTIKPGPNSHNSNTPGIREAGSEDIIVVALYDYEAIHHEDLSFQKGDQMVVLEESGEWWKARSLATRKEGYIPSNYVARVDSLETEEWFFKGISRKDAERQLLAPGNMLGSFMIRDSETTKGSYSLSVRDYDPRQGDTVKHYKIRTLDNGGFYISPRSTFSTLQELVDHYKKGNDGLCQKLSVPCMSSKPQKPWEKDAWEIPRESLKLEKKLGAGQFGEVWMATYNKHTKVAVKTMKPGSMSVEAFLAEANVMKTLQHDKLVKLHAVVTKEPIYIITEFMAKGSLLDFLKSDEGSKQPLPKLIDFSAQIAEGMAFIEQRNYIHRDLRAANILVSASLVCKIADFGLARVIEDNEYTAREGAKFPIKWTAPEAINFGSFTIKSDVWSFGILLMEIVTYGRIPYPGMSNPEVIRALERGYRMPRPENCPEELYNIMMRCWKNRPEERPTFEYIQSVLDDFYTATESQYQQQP", "experiment": "Inhibition of Hck (unknown origin)"}, "[19]": {"experiment": "Toxicity in CB17-SCID mouse assessed as effect on body weight loss at 50 mg/kg/day administered via oral gavage measured every 2 days for 12 days", "type": "organism-based", "conditions": "in vivo, 288 h, time 12 day"}, "[20]": {"experiment": "Oral bioavailability in ICR mouse at 10 mg/kg measured upto 24 hrs by LC-MS/MS analysis", "type": "ADME, organism-based", "conditions": "in vivo"}, "[21]": {"target": "Receptor-type tyrosine-protein kinase FLT3 (Homo sapiens, UniProt P36888)", "experiment": "Inhibition of FLT3 (unknown origin)"}, "[22]": {"experiment": "AUC (0 to infinity) in ICR mouse at 10 mg/kg, po measured upto 24 hrs by LC-MS/MS analysis", "type": "ADME, organism-based", "design": "dose 10 mg/kg, time < 24 hrs, route po", "conditions": "in vivo"}, "[23]": {"experiment": "Clearance in ICR mouse at 2.0 mg/kg, iv measured upto 24 hrs by LC-MS/MS analysis", "type": "ADME, organism-based", "conditions": "in vivo"}, "[24]": {"experiment": "Toxicity in CB17-SCID mouse assessed as mortality at 50 mg/kg/day administered via oral gavage measured every 2 days for 12 days", "type": "organism-based", "conditions": "in vivo, 288 h, time 12 day"}, "[25]": {"experiment": "AUC (0 to t) in ICR mouse at 10 mg/kg, po measured upto 24 hrs by LC-MS/MS analysis", "type": "ADME, organism-based", "design": "time < 24 hrs, dose 10 mg/kg, route po", "conditions": "in vivo"}, "[26]": {"target": "Tyrosine-protein kinase receptor UFO (Homo sapiens, UniProt P30530)", "sequence (P30530 whole entry)": "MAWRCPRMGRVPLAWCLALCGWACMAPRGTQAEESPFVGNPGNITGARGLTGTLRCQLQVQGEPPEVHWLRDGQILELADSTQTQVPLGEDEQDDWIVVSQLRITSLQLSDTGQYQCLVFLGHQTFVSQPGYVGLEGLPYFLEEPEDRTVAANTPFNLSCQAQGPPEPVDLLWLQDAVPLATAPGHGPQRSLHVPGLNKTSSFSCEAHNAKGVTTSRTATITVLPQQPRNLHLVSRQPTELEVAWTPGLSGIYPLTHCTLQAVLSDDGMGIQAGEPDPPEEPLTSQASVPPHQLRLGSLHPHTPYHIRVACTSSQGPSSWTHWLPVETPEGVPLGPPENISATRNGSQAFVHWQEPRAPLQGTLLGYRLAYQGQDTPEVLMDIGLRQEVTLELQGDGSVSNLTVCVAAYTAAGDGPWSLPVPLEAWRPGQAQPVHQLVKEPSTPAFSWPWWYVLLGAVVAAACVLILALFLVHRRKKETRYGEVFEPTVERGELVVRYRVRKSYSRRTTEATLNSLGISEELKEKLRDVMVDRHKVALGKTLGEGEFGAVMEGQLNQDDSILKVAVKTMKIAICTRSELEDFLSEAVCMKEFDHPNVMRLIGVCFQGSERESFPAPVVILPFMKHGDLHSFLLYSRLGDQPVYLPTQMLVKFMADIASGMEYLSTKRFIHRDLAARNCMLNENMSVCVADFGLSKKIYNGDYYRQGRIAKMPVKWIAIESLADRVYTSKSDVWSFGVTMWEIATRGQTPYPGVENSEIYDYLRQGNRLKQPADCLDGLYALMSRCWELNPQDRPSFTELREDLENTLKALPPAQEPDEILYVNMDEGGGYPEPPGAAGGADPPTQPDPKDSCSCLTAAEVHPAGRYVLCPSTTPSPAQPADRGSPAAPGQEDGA", "experiment": "Inhibition of Axl (unknown origin)"}, "[27]": {"experiment": "Tmax in ICR mouse at 10 mg/kg, po measured upto 24 hrs by LC-MS/MS analysis", "type": "ADME, organism-based", "conditions": "in vivo"}, "[28]": {"target": "Vascular endothelial growth factor receptor 3 (Homo sapiens, UniProt P35916)", "sequence (P35916 whole entry)": "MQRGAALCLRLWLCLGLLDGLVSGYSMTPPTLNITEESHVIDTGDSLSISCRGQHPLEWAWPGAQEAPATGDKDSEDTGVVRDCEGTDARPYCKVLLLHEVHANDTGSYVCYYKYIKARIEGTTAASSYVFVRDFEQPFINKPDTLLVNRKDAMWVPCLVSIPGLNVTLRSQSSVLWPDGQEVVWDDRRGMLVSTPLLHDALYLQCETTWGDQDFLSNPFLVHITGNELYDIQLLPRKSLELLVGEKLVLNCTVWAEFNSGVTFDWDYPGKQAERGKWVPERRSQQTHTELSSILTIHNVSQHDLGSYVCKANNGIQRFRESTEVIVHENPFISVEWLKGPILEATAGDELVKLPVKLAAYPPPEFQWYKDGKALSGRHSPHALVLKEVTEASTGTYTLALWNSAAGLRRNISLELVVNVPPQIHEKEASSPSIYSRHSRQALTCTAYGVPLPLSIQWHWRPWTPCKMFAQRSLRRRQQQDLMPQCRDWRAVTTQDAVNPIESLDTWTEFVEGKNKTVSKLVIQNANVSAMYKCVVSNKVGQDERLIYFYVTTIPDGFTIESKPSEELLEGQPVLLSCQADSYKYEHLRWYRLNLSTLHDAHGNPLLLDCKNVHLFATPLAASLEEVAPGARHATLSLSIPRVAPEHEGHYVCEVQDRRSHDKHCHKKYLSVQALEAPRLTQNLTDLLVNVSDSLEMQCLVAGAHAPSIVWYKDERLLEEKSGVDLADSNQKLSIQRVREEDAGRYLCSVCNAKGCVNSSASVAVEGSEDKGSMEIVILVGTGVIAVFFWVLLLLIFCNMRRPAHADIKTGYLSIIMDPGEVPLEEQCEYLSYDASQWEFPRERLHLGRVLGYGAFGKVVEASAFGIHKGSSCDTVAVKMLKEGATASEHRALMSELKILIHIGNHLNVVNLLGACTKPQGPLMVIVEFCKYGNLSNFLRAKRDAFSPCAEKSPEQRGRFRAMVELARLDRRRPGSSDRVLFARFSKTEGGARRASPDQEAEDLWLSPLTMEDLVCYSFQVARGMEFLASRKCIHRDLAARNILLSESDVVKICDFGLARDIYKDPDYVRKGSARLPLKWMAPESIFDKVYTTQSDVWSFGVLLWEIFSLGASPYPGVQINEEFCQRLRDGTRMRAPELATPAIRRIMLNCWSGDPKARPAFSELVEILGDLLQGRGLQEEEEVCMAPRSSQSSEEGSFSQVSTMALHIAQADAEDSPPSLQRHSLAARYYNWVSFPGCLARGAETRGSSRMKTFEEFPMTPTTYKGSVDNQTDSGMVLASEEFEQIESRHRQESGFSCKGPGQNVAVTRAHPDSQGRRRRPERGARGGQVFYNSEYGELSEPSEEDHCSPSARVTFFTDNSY", "experiment": "Inhibition of FLT4 (unknown origin)"}, "[29]": {"experiment": "AUC (0 to t) in ICR mouse at 2.0 mg/kg, iv measured upto 24 hrs by LC-MS/MS analysis", "type": "ADME, organism-based", "design": "time < 24 hrs, dose 2 mg/kg, route iv", "conditions": "in vivo"}, "[30]": {"target": "Ephrin type-A receptor 5 (Homo sapiens, UniProt P54756)", "experiment": "Inhibition of EphA5 (unknown origin)"}}}
{"smiles": "Cc1c2cc(cc1C(=O)Nc1cc(CN3CCN(C)CC3)cc(C3CC3)c1)OCCCCCCCNC(=O)c1ccc3ncc(n3n1)C#C2", "values": [{"measurement": "Cmax", "setting": "[1]", "value": 626, "unit": "ng/mL"}, {"measurement": "IC50", "setting": "[2]", "value": 0.0259, "unit": "µM"}, {"measurement": "half-life", "setting": "[3]", "value": 4.3, "unit": "h"}, {"measurement": "IC50", "setting": "[4]", "value": 0.155, "unit": "µM"}, {"measurement": "IC50", "setting": "[5]", "value": 0.0736, "unit": "µM"}, {"measurement": "IC50", "setting": "[6]", "value": 0.00177, "unit": "µM"}, {"measurement": "IC50", "setting": "[7]", "value": 0.06682, "unit": "µM"}, {"measurement": "AUC(0-inf)", "setting": "[8]", "value": 1280, "unit": "ng·h/mL"}, {"measurement": "IC50", "setting": "[9]", "value": 0.00748, "unit": "µM"}, {"measurement": "IC50", "setting": "[10]", "value": 0.0663, "unit": "µM"}, {"measurement": "half-life", "setting": "[11]", "value": 1.92, "unit": "h"}, {"measurement": "IC50", "setting": "[12]", "value": 0.0128, "unit": "µM"}, {"measurement": "Tmax", "setting": "[13]", "value": 4.8, "unit": "min"}, {"measurement": "Activity", "setting": "[14]", "value": "Non-Toxic"}, {"measurement": "IC50", "setting": "[15]", "value": 0.0128, "unit": "µM"}, {"measurement": "IC50", "setting": "[16]", "value": 0.0238, "unit": "µM"}, {"measurement": "Cmax", "setting": "[17]", "value": 95.2, "unit": "ng/mL"}, {"measurement": "IC50", "setting": "[18]", "value": 0.253, "unit": "µM"}, {"measurement": "Activity", "setting": "[19]", "value": "Non-Toxic"}, {"measurement": "bioavailability", "setting": "[20]", "value": 11, "unit": "%"}, {"measurement": "IC50", "setting": "[21]", "value": 0.0116, "unit": "µM"}, {"measurement": "AUC(0-inf)", "setting": "[22]", "value": 707, "unit": "ng·h/mL"}, {"measurement": "clearance", "setting": "[23]", "value": 26.7, "unit": "mL/min/kg"}, {"measurement": "Activity", "setting": "[24]", "value": "Non-Toxic"}, {"measurement": "AUC(0-t) at 24 h", "setting": "[25]", "value": 501, "unit": "ng·h/mL"}, {"measurement": "IC50", "setting": "[26]", "value": 1.55, "unit": "µM"}, {"measurement": "Tmax", "setting": "[27]", "value": 2.17, "unit": "h"}, {"measurement": "IC50", "setting": "[28]", "value": 0.0594, "unit": "µM"}, {"measurement": "AUC(0-t) at 24 h", "setting": "[29]", "value": 1200, "unit": "ng·h/mL"}, {"measurement": "IC50", "setting": "[30]", "value": 0.023, "unit": "µM"}]}
